This note sets out measurements from PMC3433420 (PLoS ONE, 2012).

In assay [1] the target is VAV2 SH2 domain (Homo sapiens, UniProt P52735). The experiment in a line: FP saturation binding assay.
The target of assay [2] is BLK SH2 domain (Homo sapiens, UniProt P51451). The experiment in a line: FP saturation binding assay.
For assay [3], the target named is PLCG2-NC tandem SH2 domains (Homo sapiens, UniProt P16885). The experiment in a line: FP saturation binding assay.
For assay [4], the target named is T1, SH2 and PTB domains (Homo sapiens, UniProt O14796).
T1 construct: thioredoxin; made in house; host or cells: BL21(DE3)pLysS E. coli
T1 sequence (O14796 1-132): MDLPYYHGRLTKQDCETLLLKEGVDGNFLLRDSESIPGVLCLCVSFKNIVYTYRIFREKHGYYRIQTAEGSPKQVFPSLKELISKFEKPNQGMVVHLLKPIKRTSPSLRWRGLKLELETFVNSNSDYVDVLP
Kind of assay: In-house protein microarrays (with or without 5 mM DTT), protein named per line. The assay is classed as binding. The note with it: protein SH2D1B. Summed up:
(§1)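 KD values come from rhodamine fluorescence of duplicate spots after subtraction of a thioredoxin control. Domains were printed at ~40 µM on aldehyde slides, blocked 1 h at room temperature in pH 7.8 HEPES/KCl buffer with 5 mM DTT and 1% BSA, then peptide-probed.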

Assay [5] has as its target T2, SH2 and PTB domains (Homo sapiens, UniProt O75159).
T2 construct: thioredoxin; made in house; host or cells: BL21(DE3)pLysS E. coli
The assay is described as above. The format is binding. The note with it: protein SOCS5; PM assay replicate # 39337; array fabrication # 39329. Summed up:
as §1

For assay [6], the target named is T3, SH2 and PTB domains (Homo sapiens, UniProt P06239).
T3 construct: thioredoxin; made in house; host or cells: BL21(DE3)pLysS E. coli
T3 sequence (P06239 whole entry, the tested form may be a part): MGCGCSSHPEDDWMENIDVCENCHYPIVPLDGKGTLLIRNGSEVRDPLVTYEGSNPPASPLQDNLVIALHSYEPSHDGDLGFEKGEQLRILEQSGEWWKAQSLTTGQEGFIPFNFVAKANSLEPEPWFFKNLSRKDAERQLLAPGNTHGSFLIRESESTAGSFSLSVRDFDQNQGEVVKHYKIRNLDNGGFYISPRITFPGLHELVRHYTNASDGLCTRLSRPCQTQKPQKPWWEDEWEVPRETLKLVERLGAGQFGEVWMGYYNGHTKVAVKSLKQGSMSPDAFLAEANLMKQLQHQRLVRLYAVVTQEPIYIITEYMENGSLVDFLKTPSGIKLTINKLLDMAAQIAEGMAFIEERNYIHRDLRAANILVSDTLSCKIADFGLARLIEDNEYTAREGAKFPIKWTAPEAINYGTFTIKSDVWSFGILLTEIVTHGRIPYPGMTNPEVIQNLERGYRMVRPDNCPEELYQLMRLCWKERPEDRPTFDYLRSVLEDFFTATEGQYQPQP
The assay is described as above. To be noted: protein LCK. The format is binding. The method in brief:
as §1

For assay [7], the target named is T4, SH2D1B SH2 domain (Homo sapiens, UniProt O14796).
T4 sequence (O14796 5-101 limits assumed): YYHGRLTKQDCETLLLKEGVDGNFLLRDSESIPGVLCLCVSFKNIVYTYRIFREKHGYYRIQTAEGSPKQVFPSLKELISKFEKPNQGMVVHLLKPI
The experiment in a line: FP saturation binding assay.

Assay [8] deals with BLNK SH2 domain (Homo sapiens, UniProt Q8WV28). Kind of assay: FP saturation binding assay.
Chain of BLNK SH2 domain (Q8WV28 346-453 limits assumed): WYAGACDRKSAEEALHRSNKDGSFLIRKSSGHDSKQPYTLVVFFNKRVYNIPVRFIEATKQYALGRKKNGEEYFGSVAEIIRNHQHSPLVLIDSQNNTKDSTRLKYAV
The target in assay [9] is VAV1 SH2 domain (Homo sapiens, UniProt P15498). The experiment in a line: FP saturation binding assay.
Chain of VAV1 SH2 domain (P15498 671-765 limits assumed): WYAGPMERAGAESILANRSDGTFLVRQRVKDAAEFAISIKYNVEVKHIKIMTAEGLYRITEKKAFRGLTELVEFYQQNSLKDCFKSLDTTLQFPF
Assay [10] concerns the target STAP1 SH2 domain (Homo sapiens, UniProt Q9ULZ2). The experiment in a line: FP saturation binding assay.
For assay [11], the target named is GRB2 SH2 domain (Homo sapiens, UniProt P62993). The experiment in a line: FP saturation binding assay.
Chain of GRB2 SH2 domain (P62993 60-152 limits assumed): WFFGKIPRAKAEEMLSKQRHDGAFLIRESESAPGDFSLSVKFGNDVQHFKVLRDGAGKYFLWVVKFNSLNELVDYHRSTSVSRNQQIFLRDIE
Assay [12] deals with T5, HSH2D SH2 domain (Homo sapiens, UniProt Q96JZ2).
T5 sequence (Q96JZ2 34-125 limits assumed): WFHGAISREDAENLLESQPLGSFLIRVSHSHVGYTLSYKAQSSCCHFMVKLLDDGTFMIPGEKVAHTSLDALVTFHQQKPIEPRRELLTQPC
Kind of assay: FP saturation binding assay.

In assay [13] the target is T6, SH2 and PTB domains (Homo sapiens, UniProt Q8WV28).
T6 construct: thioredoxin; made in house; host or cells: BL21(DE3)pLysS E. coli
T6 sequence (Q8WV28 whole entry, the tested form may be a part): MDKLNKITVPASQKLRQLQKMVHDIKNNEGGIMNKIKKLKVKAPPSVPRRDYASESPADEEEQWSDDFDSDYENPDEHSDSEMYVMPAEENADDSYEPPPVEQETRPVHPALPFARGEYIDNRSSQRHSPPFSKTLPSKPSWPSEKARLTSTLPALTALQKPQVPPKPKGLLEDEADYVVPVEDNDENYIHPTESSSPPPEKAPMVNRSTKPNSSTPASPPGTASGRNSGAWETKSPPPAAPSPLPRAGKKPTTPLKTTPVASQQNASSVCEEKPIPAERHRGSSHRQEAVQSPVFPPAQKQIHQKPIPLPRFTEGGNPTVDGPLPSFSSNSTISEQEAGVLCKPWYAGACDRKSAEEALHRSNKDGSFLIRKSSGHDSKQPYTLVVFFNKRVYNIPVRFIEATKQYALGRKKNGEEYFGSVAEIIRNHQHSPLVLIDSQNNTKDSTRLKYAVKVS
The experiment in a line: In-house protein microarrays (with or without 5 mM DTT), protein named per line. The assay is classed as binding. The note with it: protein BLNK; PM assay replicate # 39307; array fabrication # 39286. Summed up:
as §1

Setting [14] is: PM assay replicate # 39336, array fabrication # 39329.
Setting [15] is: PM assay replicate # 39603, array fabrication # 39392.

Usually Kd stands for the constant that tells how readily two partners part at equilibrium. A high value points to weaker binding.

Each structure is given as a SMILES string. Residues, ends and D or L forms follow the SMILES beside them.

Chain of VAV2 SH2 domain (P52735 673-767 limits assumed): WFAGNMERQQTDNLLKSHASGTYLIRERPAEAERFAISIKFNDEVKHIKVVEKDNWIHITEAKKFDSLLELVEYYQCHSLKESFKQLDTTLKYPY
T2 sequence (O75159 whole entry, the tested form may be a part): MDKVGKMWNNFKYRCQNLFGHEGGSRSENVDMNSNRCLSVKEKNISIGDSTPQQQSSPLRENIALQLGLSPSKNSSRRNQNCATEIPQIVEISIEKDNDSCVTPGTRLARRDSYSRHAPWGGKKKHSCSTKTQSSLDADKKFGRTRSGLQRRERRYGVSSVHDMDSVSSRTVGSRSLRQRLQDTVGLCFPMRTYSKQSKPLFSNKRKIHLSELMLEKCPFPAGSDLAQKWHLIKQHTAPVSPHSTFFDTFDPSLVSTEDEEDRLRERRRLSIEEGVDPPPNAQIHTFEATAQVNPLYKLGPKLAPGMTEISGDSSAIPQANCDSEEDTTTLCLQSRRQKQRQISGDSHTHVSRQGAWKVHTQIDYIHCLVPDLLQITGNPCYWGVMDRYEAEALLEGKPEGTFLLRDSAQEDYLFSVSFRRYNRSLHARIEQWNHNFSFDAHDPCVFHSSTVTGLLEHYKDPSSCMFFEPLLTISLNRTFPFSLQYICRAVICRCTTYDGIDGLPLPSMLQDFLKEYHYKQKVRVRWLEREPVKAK
Chain of BLK SH2 domain (P51451 124-220 limits assumed): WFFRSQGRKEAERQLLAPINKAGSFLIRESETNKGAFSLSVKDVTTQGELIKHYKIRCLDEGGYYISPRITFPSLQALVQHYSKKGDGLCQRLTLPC
Chain of STAP1 SH2 domain (Q9ULZ2 177-280 limits assumed): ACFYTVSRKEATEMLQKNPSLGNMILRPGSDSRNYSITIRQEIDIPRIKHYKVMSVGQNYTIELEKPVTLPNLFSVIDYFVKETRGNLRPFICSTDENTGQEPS
Chain of PLCG2-NC tandem SH2 domains (P16885 532-735 limits assumed): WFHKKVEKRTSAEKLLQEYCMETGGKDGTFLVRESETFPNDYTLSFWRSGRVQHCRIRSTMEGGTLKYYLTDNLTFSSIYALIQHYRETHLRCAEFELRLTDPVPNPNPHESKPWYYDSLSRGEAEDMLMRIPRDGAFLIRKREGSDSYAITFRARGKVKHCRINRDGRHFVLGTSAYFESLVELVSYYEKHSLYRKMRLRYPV

Compound `CC(C)C[C@H](NC(=O)[C@H](Cc1ccc(OP(=O)(O)O)cc1)NC(=O)[C@H](CCC(=O)O)NC(=O)[C@H](CCC(=O)O)NC(=O)[C@H](C)NC(=O)[C@@H](N)CC(=O)O)C(=O)N[C@H](C(=O)N1CCC[C@H]1C(=O)N[C@@H](CCC(N)=O)C(=O)N[C@@H](CCC(N)=O)C(=O)NCC(=O)N[C@@H](Cc1ccccc1)C(=O)N[C@@H](CC(=O)O)C(=O)O)C(C)C` [ErbB2 1023 13-mer] (HELM PEPTIDE1{D.A.E.E.[O=C([C@H](Cc1ccc(OP(=O)(O)O)cc1)N[*:1])[*:2]].L.V.P.Q.Q.G.F.D}$$$$V2.0) gave a Kd in assay [1] of 9900 nM.
As to `CC(C)C[C@H](NC(=O)[C@H](CC(N)=O)NC(=O)[C@@H](N)CC(=O)O)C(=O)N[C@@H](Cc1ccc(O)cc1)C(=O)N[C@@H](Cc1ccc(OP(=O)(O)O)cc1)C(=O)N[C@@H](Cc1c[nH]c2ccccc12)C(=O)N[C@@H](CC(=O)O)C(=O)N[C@@H](CCC(N)=O)C(=O)N[C@@H](CC(=O)O)C(=O)N1CCC[C@H]1C(=O)N1CCC[C@H]1C(=O)N[C@@H](CCC(=O)O)C(=O)N[C@@H](CC(=O)O)C(=O)O` [ErbB2 1222 13-mer] (HELM PEPTIDE1{D.N.L.Y.[O=C([C@H](Cc1ccc(OP(=O)(O)O)cc1)N[*:1])[*:2]].W.D.Q.D.P.P.E.D}$$$$V2.0), the Kd in [2] amounted to 10900 nM; in assay [3], 6400 nM.
For the compound `CC(C)C[C@H](NC(=O)[C@@H]1CCCN1)C(=O)N[C@@H](CCC(N)=O)C(=O)N[C@@H](CCCNC(=N)N)C(=O)N[C@@H](Cc1ccc(OP(=O)(O)O)cc1)C(=O)N[C@@H](CO)C(=O)N[C@@H](CCC(=O)O)C(=O)N[C@@H](CC(=O)O)C(=O)N1CCC[C@H]1C(=O)N[C@H](C(=O)N[C@H](C(=O)N1CCC[C@H]1C(=O)N[C@@H](CC(=O)O)C(=O)O)C(C)C)[C@@H](C)O` [ErbB2 pY1112] (HELM PEPTIDE1{P.L.Q.R.[O=C([C@H](Cc1ccc(OP(=O)(O)O)cc1)N[*:1])[*:2]].S.E.D.P.T.V.P.D}$$$$V2.0), the “Kd” value was found to be 2030 nM in assay [4] (PM assay replicate # 39331, array fabrication # 39329); 5390 nM in assay [4] (setting [14]); 490 nM in assay [4] (setting [15]).
As for `CC(C)C[C@H](NC(=O)[C@@H]1CCCN1C(=O)[C@H](C)NC(=O)[C@@H](NC(=O)[C@H](Cc1ccc(OP(=O)(O)O)cc1)NC(=O)CNC(=O)[C@H](CC(=O)O)NC(=O)[C@@H](NC(=O)[C@@H](N)CCC(=O)O)[C@@H](C)O)C(C)C)C(=O)N[C@H](C(=O)N[C@@H](CS)C(=O)N[C@@H](CO)C(=O)N[C@@H](CC(=O)O)C(=O)O)[C@@H](C)O` [ErbB2 pY1127], the equilibrium dissociation constant (Kd) in [5] was found to be 700 nM; in assay [6] (setting [14]), 800 nM; in [6] (PM assay replicate # 39337, array fabrication # 39329) it was 1610 nM; in assay [6] (setting [15]), 130 nM.
For `CSCC[C@H](NC(=O)[C@H](Cc1ccc(OP(=O)(O)O)cc1)NC(=O)[C@H](CCC(=O)O)NC(=O)[C@H](Cc1ccc(O)cc1)NC(=O)CNC(=O)[C@@H](N)CC(C)C)C(=O)N[C@@H](CC(=O)O)C(=O)N[C@H](C(=O)NCC(=O)N[C@@H](CO)C(=O)N[C@@H](CC(=O)O)C(=O)N[C@@H](CC(C)C)C(=O)N[C@@H](CC(=O)O)C(=O)O)C(C)C` [ErbB3 1224 13-mer] (HELM PEPTIDE1{L.G.Y.E.[O=C([C@H](Cc1ccc(OP(=O)(O)O)cc1)N[*:1])[*:2]].M.D.V.G.S.D.L.D}$$$$V2.0), the dissociation constant Kd in [7] worked out at 1470 nM; in assay [8], 3630 nM.
In assay [9], `CSCC[C@H](NC(=O)[C@H](Cc1ccc(OP(=O)(O)O)cc1)NC(=O)CNC(=O)[C@H](CCC(=O)O)NC(=O)[C@H](CCC(=O)O)NC(=O)[C@H](CC(=O)O)NC(=O)[C@H](CC(C)C)NC(=O)[C@H](CCC(=O)O)NC(=O)CNC(=O)[C@H](CCCNC(=N)N)NC(=O)[C@@H]1CCCN1)C(=O)N[C@H](C(=O)N1CCC[C@H]1C(=O)N[C@@H](CCSC)C(=O)N[C@@H](CCCNC(=N)N)C(=O)N[C@@H](CC(=O)O)C(=O)N[C@@H](CCCCN)C(=O)N[C@@H](CC(=O)O)C(=O)O)[C@@H](C)O` [ErbB4 1150 18-mer] (HELM PEPTIDE1{P.R.G.E.L.D.E.E.G.[O=C([C@H](Cc1ccc(OP(=O)(O)O)cc1)N[*:1])[*:2]].M.T.P.M.R.D.K.D}$$$$V2.0) came in with a dissociation constant Kd of 860 nM.
For `CC(C)C[C@H](NC(=O)[C@H](Cc1ccc(OP(=O)(O)O)cc1)NC(=O)[C@H](CC(C)C)NC(=O)[C@@H]1CCCN1C(=O)[C@H](CCC(=O)O)NC(=O)[C@H](CC(N)=O)NC(=O)[C@@H](NC(=O)[C@H](Cc1ccc(O)cc1)NC(=O)[C@H](CCC(=O)O)NC(=O)[C@H](CC(=O)O)NC(=O)[C@@H](N)CCC(=O)O)C(C)C)C(=O)N[C@@H](CC(N)=O)C(=O)N[C@H](C(=O)N[C@@H](Cc1ccccc1)C(=O)N[C@@H](C)C(=O)N[C@@H](CC(N)=O)C(=O)N[C@H](C(=O)N[C@@H](CC(=O)O)C(=O)O)[C@@H](C)O)[C@@H](C)O` [ErbB4 1208 18-mer] (HELM PEPTIDE1{E.D.E.Y.V.N.E.P.L.[O=C([C@H](Cc1ccc(OP(=O)(O)O)cc1)N[*:1])[*:2]].L.N.T.F.A.N.T.D}$$$$V2.0), the dissociation constant (Kd) in assay [10] turned out to be 10100 nM; in assay [11], 2460 nM; in assay [12], 1140 nM.
For `CC[C@H](C)[C@H](NC(=O)[C@H](CC(N)=O)NC(=O)[C@H](CC(N)=O)NC(=O)[C@H](CCCCN)NC(=O)[C@H](CC(C)C)NC(=O)[C@H](Cc1ccc(OP(=O)(O)O)cc1)NC(=O)[C@H](CCC(=O)O)NC(=O)[C@H](C)NC(=O)[C@H](CCCCN)NC(=O)CNC(=O)[C@H](CC(C)C)NC(=O)[C@@H](NC(=O)[C@H](CC(N)=O)NC(=O)[C@H](C)NC(=O)[C@@H](N)Cc1ccccc1)[C@@H](C)O)C(=O)N[C@@H](CC(C)C)C(=O)N[C@@H](CO)C(=O)N[C@@H](CC(=O)O)C(=O)O` [ErbB4 pY1221 (18-mer)] (HELM PEPTIDE1{F.A.N.T.L.G.K.A.E.[O=C([C@H](Cc1ccc(OP(=O)(O)O)cc1)N[*:1])[*:2]].L.K.N.N.I.L.S.D}$$$$V2.0), the “Kd” value in assay [13] was found to be 4000 nM.
